Measurements taken from PubChem BioAssay AID1963968 (Molecular Pharmacology Branch, DTP, NCI, 2024).

Tested on: 945468-187-T-J3-PDC spheroids with HUVEC/MSC, viability
Experiment: Anticancer human tumor 945468-187-T-J3-PDC patient-derived rectal carcinoma cell line growth inhibition [PI3K]
Details: for IC50: curve of first compound; for viability, T/C: stronger effect = lower value
Source text: Combinatorial screen of targeted agents with the PI3K inhibitors inavolisib, alpelisib, duvelisib, and copanlisib in multi-cell type tumor spheroids
A high-throughput screen of multi-cell type tumor spheroids was designed to identify active combinations of targeted small molecules and PI3K pathway inhibitors. Complex spheroids include a stromal component modeled by human endothelial cells (HUVEC) and fibroblasts modeled by human mesenchymal stem cells (MSCs). The concentration ranges selected for each drug and investigational agent were based upon clinically achievable concentrations if the clinical Cmax of the agent was known.
Compounds. The drugs and investigational agents: inavolisib (NSC800729), alpelisib (NSC765974), duvelisib (NSC772469), copanlisib (NSC816437), ipatasertib (NSC767898), afuresertib (NSC778305), talazoparib (NSC767125), sapanisertib (NSC764658), selumetinib (NSC741078), tovorafenib (DAY101, NSC766906), vemurafenib (NSC761431), ravoxertinib (NSC781343), sotorasib (NSC818433), MRTX1133 (NSC 836407), abemaciclib (NSC 768073), palbociclib (NSC758247), venetoclax (NSC 766270), SY5609 (NSC837396), enzalutamide (NSC755605), and darolutamide (NSC825331), were obtained from the National Cancer Institute (NCI) Developmental Therapeutics Program Chemical Repository. The FDA-approved anticancer drug set is available from the NCI Developmental Therapeutics Program. […] The stock solutions were prepared in dimethyl sulfoxide (DMSO, Sigma-Aldrich, St. Louis, MO, cat. D2650) at 800-fold the tested concentration and stored at -70 degrees C prior to their use. All drugs and investigational agents were tested over a range starting from a high concentration at or near the clinical Cmax and decreasing in half-log increments. If the clinical Cmax for an agent had not been determined, the highest concentration tested was 10 microM.
Cell Culture. All cells were maintained in an incubator at 37 degrees C and 5% CO2 with 95% humidity. The PDC lines were cultured according to standard operating procedures established by the NCI PDMR (https://pdmr.cancer.gov/sops/default.htm). All PDCs were thawed and cultured in Matrigel-coated flasks prepared with a working solution of 1X Ham's F-12 nutrient mix, without supplementation (Invitrogen, Waltham, MA, cat. 11765054), 100 U/mL penicillin-streptomycin (Invitrogen, cat. 15140122), and 2.5% Matrigel (Corning Inc., Corning, NY, cat. 354248) for the first three passages. The 354836-022-R-J1-PDC, 475296-252-R-J1-PDC, and 997726-040-R-J2-PDC lines were cultured in 6A media, which includes advanced DMEM/F-12 (Thermo Fisher Scientific, cat. 12634028), 10 mM HEPES (Thermo Fisher Scientific, cat. 15630080), 1X GlutaMAX supplement (Thermo Fisher Scientific, cat. 35050061), 0.1 mg/mL primocin (InvivoGen, San Diego, CA, cat. ant-pm-2), 10% defined fetal bovine serum, heat inactivated (HyClone Laboratories Inc., Logan, UT, cat. SH30070.03HI), 50% L-WRN conditioned media (ATCC, cat. CRL-3276), 1.25 mM N-Acetyl-L-cysteine (Sigma-Aldrich, cat. A9165), 10 mM nicotinamide (Sigma-Aldrich, cat. N0636), 1X B-27 supplement (Thermo Fisher Scientific, cat. 17504044), 1X N-2 supplement (Thermo Fisher Scientific, cat. 17502048), and 10 microM Y-27632 dihydrochloride (Tocris Bioscience, Bristol, United Kingdom, cat. 1254). The 624824-186-R-J2-PDC line was cultured in 6C/Colon 1B media, which includes all 6A media components plus 50 ng/mL human EGF recombinant protein (Thermo Fisher Scientific, cat. PHG0311). […]
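Note: spheroids exposed to agents for 7 days before viability read.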
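Throughout, for viability, T/C: 100% = DMSO vehicle control viability.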

## CNC(=O)c1ccc(N2C(=S)N(c3ccc(C#N)c(C(F)(F)F)c3)C(=O)C2(C)C)cc1F + CC(Nc1ccc2c(c1)OCCn1cc(N3C(=O)OCC3C(F)F)nc1-2)C(N)=O
Second compound 0.00316 µM
  IC50: > 10 µM
Second compound 0.01 µM
  IC50: > 10 µM
Second compound 0.0316 µM
  IC50: > 10 µM
Second compound 0.1 µM
  IC50: > 10 µM
Second compound 0.316 µM
  IC50: > 10 µM
Second compound 1 µM
  IC50: > 10 µM
Second compound 0.00316 µM, first compound 0.0316 µM
  viability, T/C: 92.4%
Second compound 0.00316 µM, first compound 0.1 µM
  viability, T/C: 108%
Second compound 0.00316 µM, first compound 0.316 µM
  viability, T/C: 109%
Second compound 0.00316 µM, first compound 1 µM
  viability, T/C: 108%
Second compound 0.00316 µM, first compound 3.16 µM
  viability, T/C: 132%
Second compound 0.00316 µM, first compound 10 µM
  viability, T/C: 103%
Second compound 0.01 µM, first compound 0.0316 µM
  viability, T/C: 105%
Second compound 0.01 µM, first compound 0.1 µM
  viability, T/C: 124%
Second compound 0.01 µM, first compound 0.316 µM
  viability, T/C: 115%
Second compound 0.01 µM, first compound 1 µM
  viability, T/C: 129%
Second compound 0.01 µM, first compound 3.16 µM
  viability, T/C: 111%
Second compound 0.01 µM, first compound 10 µM
  viability, T/C: 108%
Second compound 0.0316 µM, first compound 0.0316 µM
  viability, T/C: 110%
Second compound 0.0316 µM, first compound 0.1 µM
  viability, T/C: 118%
Second compound 0.0316 µM, first compound 0.316 µM
  viability, T/C: 111%
Second compound 0.0316 µM, first compound 1 µM
  viability, T/C: 126%
Second compound 0.0316 µM, first compound 3.16 µM
  viability, T/C: 109%
Second compound 0.0316 µM, first compound 10 µM
  viability, T/C: 111%
Second compound 0.1 µM, first compound 0.0316 µM
  viability, T/C: 121%
Second compound 0.1 µM, first compound 0.1 µM
  viability, T/C: 108%
Second compound 0.1 µM, first compound 0.316 µM
  viability, T/C: 125%
Second compound 0.1 µM, first compound 1 µM
  viability, T/C: 128%
Second compound 0.1 µM, first compound 3.16 µM
  viability, T/C: 126%
Second compound 0.1 µM, first compound 10 µM
  viability, T/C: 109%
Second compound 0.316 µM, first compound 0.0316 µM
  viability, T/C: 124%
Second compound 0.316 µM, first compound 0.1 µM
  viability, T/C: 104%
Second compound 0.316 µM, first compound 0.316 µM
  viability, T/C: 108%
Second compound 0.316 µM, first compound 1 µM
  viability, T/C: 115%
Second compound 0.316 µM, first compound 3.16 µM
  viability, T/C: 121%
Second compound 0.316 µM, first compound 10 µM
  viability, T/C: 108%
Second compound 1 µM, first compound 0.0316 µM
  viability, T/C: 79.8%
Second compound 1 µM, first compound 0.1 µM
  viability, T/C: 63.1%
Second compound 1 µM, first compound 0.316 µM
  viability, T/C: 72.7%
Second compound 1 µM, first compound 1 µM
  viability, T/C: 81.1%
Second compound 1 µM, first compound 3.16 µM
  viability, T/C: 94.5%
Second compound 1 µM, first compound 10 µM
  viability, T/C: 94.3%
